Experimental data reported in patent US20220387405A1, “METHODS OF TREATMENT WITH N-((R)-1-(3-CHLOROPYRIDIN-2-YL)-2,2,2-TRIFLUOROETHYL)-2-((S)-2,6-DIOXOPIPERIDIN-3-YL)-1-OXOISOINDOLINE-5-CARBOXAMIDE” (CELGENE CORPORATION, priority 2021, published 2022).

What was measured:
[1] = test system: blasts in TP53 WT AML samples; assay: 5-day liquid culture of AML patient BM cells; assay type: cell-based, human
CYP1A2 = assay: CYP induction in human hepatocyte culture, CYP1A2 mRNA; assay type: in vitro ADME; conditions: up to 50 μM for three consecutive days
CYP3A4/5 = assay: CYP inhibition in human liver microsomes, CYP3A4/5; assay type: in vitro ADME
CYP2C9 = biological target: T1, CYP2C9 (Homo sapiens, UniProt P11712); assay: CYP inhibition in human liver microsomes, CYP2C9; assay type: in vitro ADME
T1 construct: In human liver microsomes; from tissue; host or cells: human liver microsomes
T1 sequence (P11712 whole entry): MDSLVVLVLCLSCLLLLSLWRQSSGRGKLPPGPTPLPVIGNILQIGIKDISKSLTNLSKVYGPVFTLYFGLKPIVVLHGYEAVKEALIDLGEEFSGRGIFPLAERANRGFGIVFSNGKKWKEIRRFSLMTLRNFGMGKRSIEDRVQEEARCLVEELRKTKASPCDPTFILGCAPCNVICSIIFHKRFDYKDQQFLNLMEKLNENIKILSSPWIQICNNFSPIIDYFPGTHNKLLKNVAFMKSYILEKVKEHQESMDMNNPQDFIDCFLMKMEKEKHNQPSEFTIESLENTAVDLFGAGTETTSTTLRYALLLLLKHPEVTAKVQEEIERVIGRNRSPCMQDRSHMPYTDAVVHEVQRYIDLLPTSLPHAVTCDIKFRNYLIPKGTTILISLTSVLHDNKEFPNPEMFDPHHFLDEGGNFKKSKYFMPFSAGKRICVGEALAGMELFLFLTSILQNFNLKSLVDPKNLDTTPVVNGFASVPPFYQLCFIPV

[2] = test system: Escherichia coli strain WP2 uvrA; assay: Bacterial reverse mutation test, Escherichia coli; assay type: cell-based
Procedure: Compound 1 was tested in Salmonella typhimurium strains (TA1535, TA1537, TA98, TA100) and Escherichia coli strain WP2 uvrA at a range of concentrations up to 5000 μg/plate (the standard limit concentration for this assay), in the presence and absence of a supplemented rat liver fraction (S9 mix), using the plate incorporation version of the bacterial reverse mutation test. Dimethyl sulfoxide (DMSO) was used as the solvent.
The mean revertant colony counts for the negative controls were within the laboratory historical control range. Bacteria were also incubated with standard positive controls, and the response of the various bacterial strains to these agents confirmed the sensitivity of the test system and the activity of the S9 mix. Therefore, the results from both the negative and positive controls confirmed the validity of the assay.
No substantial increases in revertant colony numbers were obtained with any of the tester strains, following exposure to Compound 1 at any concentration, in either the presence or absence of S9 mix. Therefore, Compound 1 was considered to be negative for the induction of mutagenicity in this in vitro assay.

[3] = Partitioning into blood cells; assay type: in vitro ADME
Source text: There was no marked difference in free fraction among human, rat and monkey. Over the concentration ranges tested (25- to 50-fold range) in each species, there was <2-fold change in free fraction.

CYP3A4 = assay: CYP induction in human hepatocyte culture, CYP3A4 mRNA; assay type: in vitro ADME; conditions: up to 50 μM for three consecutive days
[4] = test system: human peripheral blood (PB) lymphocytes; assay: In vitro mammalian cell micronucleus test
Procedure: Compound 1 was tested in the in vitro mammalian cell micronucleus test in human peripheral blood (PB) lymphocytes in the presence and absence of a metabolic activation system, Aroclor-induced rat liver fraction (S9), for 4 hours, and in the absence of S9 for 24 hours. The highest concentration tested was 481 μg/mL. Dimethyl sulfoxide (DMSO) was used as the solvent. […] In addition, 2 lower concentrations with appropriate concentration and cytotoxicity spacing were chosen for micronucleus scoring in each regime.

[5] = Nonclinical pharmacokinetics in rats; assay type: in vivo
Source text: The systemic clearance of Compound 1 was low and the volume of distribution was high in rats and monkeys. […] Notable sex differences in PK were not observed in either species. Compound 1 had good oral bioavailability (≥50%) in rats and monkeys.

[6] = test system: CD34+ cells from BM samples of healthy donors; assay: Liquid culture of CD34+ cells from healthy donors (FACS); assay type: cell-based, human
Procedure: (§1) CD34^+ cells isolated from BM samples of 3 TP53 WT AML donors and 3 healthy donors were treated with increasing concentrations of Compound 1 in liquid culture at times ranging from 4 hours to 5 days. […] Acute myeloid leukemia blasts sustained CK1α degradation up to 5 days in culture as assessed by fluorescence-activated cell sorting (FACS) analysis. Strikingly, p53 stabilization was sustained longer in leukemic cells (up to 48 hours) compared with normal BM cells (for 24 hours).

CYP2E1 = biological target: T2, CYP2E1 (Homo sapiens, UniProt P05181); assay: CYP inhibition in human liver microsomes, CYP2E1; assay type: in vitro ADME
T2 construct: In human liver microsomes; from tissue; host or cells: human liver microsomes
T2 sequence (P05181 whole entry): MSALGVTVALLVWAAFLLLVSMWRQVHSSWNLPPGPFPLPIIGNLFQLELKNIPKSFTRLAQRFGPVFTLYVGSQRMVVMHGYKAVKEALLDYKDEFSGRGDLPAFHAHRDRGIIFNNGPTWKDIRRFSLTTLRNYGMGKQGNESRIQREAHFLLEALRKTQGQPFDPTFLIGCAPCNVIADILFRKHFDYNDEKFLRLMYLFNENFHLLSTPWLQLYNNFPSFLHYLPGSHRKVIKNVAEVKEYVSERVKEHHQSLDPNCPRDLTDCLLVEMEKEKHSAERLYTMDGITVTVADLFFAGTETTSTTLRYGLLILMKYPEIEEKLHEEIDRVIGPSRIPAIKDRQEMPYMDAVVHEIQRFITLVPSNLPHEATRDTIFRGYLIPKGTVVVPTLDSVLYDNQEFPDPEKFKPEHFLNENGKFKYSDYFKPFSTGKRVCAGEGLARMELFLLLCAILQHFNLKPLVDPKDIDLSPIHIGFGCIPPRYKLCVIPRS

CYP2A6 = biological target: T3, CYP2A6 (Homo sapiens, UniProt P11509); assay: CYP inhibition in human liver microsomes, CYP2A6; assay type: in vitro ADME
T3 construct: In human liver microsomes; from tissue; host or cells: human liver microsomes
T3 sequence (P11509 whole entry): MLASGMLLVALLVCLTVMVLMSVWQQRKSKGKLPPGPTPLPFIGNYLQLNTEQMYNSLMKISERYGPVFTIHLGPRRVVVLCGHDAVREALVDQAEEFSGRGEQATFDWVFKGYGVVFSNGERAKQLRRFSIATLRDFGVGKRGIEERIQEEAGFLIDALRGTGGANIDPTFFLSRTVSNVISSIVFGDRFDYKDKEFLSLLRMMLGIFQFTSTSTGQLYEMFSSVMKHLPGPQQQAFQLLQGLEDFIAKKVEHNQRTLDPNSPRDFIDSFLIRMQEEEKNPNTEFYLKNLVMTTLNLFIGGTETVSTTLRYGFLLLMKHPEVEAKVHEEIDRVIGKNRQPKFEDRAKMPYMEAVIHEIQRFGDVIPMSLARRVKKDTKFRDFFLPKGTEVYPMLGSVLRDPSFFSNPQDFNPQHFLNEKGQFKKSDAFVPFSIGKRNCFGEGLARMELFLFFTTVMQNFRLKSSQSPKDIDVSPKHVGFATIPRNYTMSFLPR

[7] = test system: Normal T lymphocytes in BM samples; assay: PharmaFlow test, normal T lymphocytes in AML patient BM samples; assay type: cell-based, human; conditions: BM samples of AML patients; for Compound 1 all but 1 patient
[8] = test system: CD34+ cells from BM samples of TP53 WT AML donors; assay: Liquid culture of CD34+ cells from TP53 WT AML donors (FACS); assay type: cell-based, human
Procedure: as §1

[9] = test system: MV-4-11 AML xenograft model; assay: Single dose PK/PD and efficacy studies, MV-4-11 AML xenograft model; assay type: in vivo, mice
Procedure: The CK1α degradation activity and subsequent antitumor activity of Compound 1 in vivo was tested in two TP53 WT AML cell line-derived xenograft models. The depth and duration of CK1α degradation was dose-dependent.
Based on single dose pharmacokinetic (PK)/pharmacodynamics (PD) and efficacy studies with the MV-4-11 AML xenograft model, nearly 90% degradation of CK1α at 2 hours post-dose and 50% suppression through 16 hours a day was maintained when the tumor Compound 1 concentration was >0.1 μM. Maintenance of >0.1 μM Compound 1 in tumor, and this degree of CK1α degradation with daily dosing at 3 mg/kg, led to a 73-99% reduction in tumor burden with significant survival benefit.

[10] = test system: leukemic cells from TP53 WT AML patients; assay: PharmaFlow test (Vivia), cytotoxic effect on leukemic cells in AML patient BM samples; assay type: cell-based, human

O=C1CC[C@H](N2Cc3cc(C(=O)N[C@H](c4ncccc4Cl)C(F)(F)F)ccc3C2=O)C(=O)N1 [Compound 1, N-((R)-1-(3-chloropyridin-2-yl)-2,2,2-trifluoroethyl)-2-((S)-2,6-dioxopiperidin-3-yl)-1-oxoisoindoline-5-carboxamide]
total blast numbers ([1]; 5 days in liquid culture, all TP53 WT AML samples tested, vs vehicle control): deeply decreased
IC50 ([1]; liquid culture, apoptosis and cell cycle arrest, all samples): nanomolar range
mRNA expression of CYP1A2 (CYP1A2): no dose-dependent increases
IC50 (CYP3A4/5; human liver microsomes, CYP3A4/5): > 30 µM
inhibition at 30 min, 30 µM (CYP3A4/5; human, liver microsomes, CYP3A4/5, at 30 μM, 30-minute preincubation with NADPH, read-out: time-dependent inhibition): < 20%
time-dependent inhibition (CYP2C9; CYP2C9, 30-minute preincubation with NADPH): not a time-dependent inhibition
IC50 (CYP2C9; human liver microsomes, CYP2C9): > 30 µM
toxicity to the bacteria ([2]; highest concentrations tested): non-toxic
induction of mutagenicity (revertant colony numbers) ([2]; up to 5000 μg/plate, presence and absence of S9 mix): negative
partitioning into blood cells [3]: no or limited partitioning
mRNA expression of CYP3A4 (CYP3A4): no dose-dependent increases
proportion of micronucleated binucleate cells (MBC) ([4]; 4 hours with and without S9, 24 hours without S9, compared with negative controls): did not cause any statistically significant increases
cytotoxicity based on CBPI ([4]; human, 24 h, 120 μg/mL): approximately 55%
accumulation following multiple doses [5]: No accumulation
systemic clearance [5]: low
volume of distribution [5]: high
bioavailability ([5]; rat, in vivo, po): ≥ 50%
half-life ([5]; rat, in vivo, read-out: terminal half-life): 1.5 to 1.7 h
duration of sustained p53 stabilization ([6]; normal BM cells): 24 h
cellular outcome ([6]; normal cells): Cycle arrest
time-dependent inhibition (CYP2E1; CYP2E1, 30-minute preincubation with NADPH): not a time-dependent inhibition
inhibitory effect (CYP2E1; human liver microsomes, CYP2E1): ≤ 25%
time-dependent inhibition (CYP2A6; CYP2A6, 30-minute preincubation with NADPH): not a time-dependent inhibition
inhibitory effect (CYP2A6; human liver microsomes, CYP2A6): ≤ 25%
cytotoxicity in T lymphocytes [7]: noticeably more resistant
duration of sustained CK1α degradation ([8]; AML blasts in culture, FACS): up to 5 days
cellular outcome ([8]; leukemic cells): apoptotic outcome
duration of sustained p53 stabilization ([8]; leukemic cells): up to 48 hours
degradation of CK1α ([9]; 2 hours post-dose, tumor concentration >0.1 μM): ~90%
CK1α degradation in AML xenograft tumors ([9]; AML xenograft tumors): significantly degraded
reduction in tumor burden ([9]; daily dosing at 3 mg/kg): 73-99%
suppression of CK1α ([9]; maintained through 16 hours a day, tumor concentration >0.1 μM): 50%
IC50 ([10]; Homo sapiens): 0.022 to 0.412 µM
number of BM samples with sensitive leukemic cells ([10]; out of 9 AML patient BM samples): 5
